Experimental data published in PubChem BioAssay (NCI).
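How tested: cells in 96-well plates exposed to compound for 48 hours at five concentrations. The concentration for full growth arrest is given as TGI.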

Key:
Assay in all cases: DTP human tumour cell line panel, 48 h
NCI-H226 lung = system: NCI-H226 lung
HOP-92 NSCLC = system: HOP-92 NSCLC
HL-60(TB) leukemia = system: HL-60(TB) leukemia
MOLT-4 leukemia = system: MOLT-4 leukemia
HS 578T breast = system: HS 578T breast
MCF7 breast = system: MCF7 breast
NCI/ADR-RES ovarian = system: NCI/ADR-RES ovarian
SK-MEL-2 melanoma = system: SK-MEL-2 melanoma
MDA-MB-435 = system: MDA-MB-435
UO-31 renal = system: UO-31 renal
UACC-257 melanoma = system: UACC-257 melanoma
SK-MEL-5 melanoma = system: SK-MEL-5 melanoma
DU-145 prostate = system: DU-145 prostate
NCI-H522 lung = system: NCI-H522 lung
SF-295 CNS = system: SF-295 CNS
MALME-3M melanoma = system: MALME-3M melanoma
KM12 colon = system: KM12 colon
786-0 renal = system: 786-0 renal
RXF 393 renal = system: RXF 393 renal
HT29 colon = system: HT29 colon
OVCAR-3 ovarian = system: OVCAR-3 ovarian
MDA-N = system: MDA-N
HOP-62 NSCLC = system: HOP-62 NSCLC
HCT-15 colon = system: HCT-15 colon
IGROV1 ovarian = system: IGROV1 ovarian
A549 NSCLC = system: A549 NSCLC
NCI-H460 lung = system: NCI-H460 lung
HCT-116 colon = system: HCT-116 colon
PC-3 prostate = system: PC-3 prostate
SNB-19 CNS = system: SNB-19 CNS
M14 melanoma = system: M14 melanoma
SK-OV-3 ovarian = system: SK-OV-3 ovarian
ACHN renal = system: ACHN renal
OVCAR-5 ovarian = system: OVCAR-5 ovarian
SF-268 CNS = system: SF-268 CNS
A498 renal = system: A498 renal
UACC-62 melanoma = system: UACC-62 melanoma
MDA-MB-231 breast = system: MDA-MB-231 breast
BT-549 breast = system: BT-549 breast
TK-10 renal = system: TK-10 renal
SR leukemia = system: SR leukemia
OVCAR-8 ovarian = system: OVCAR-8 ovarian
NCI-H23 lung = system: NCI-H23 lung
RPMI-8226 leukemia = system: RPMI-8226 leukemia
CAKI-1 renal = system: CAKI-1 renal
OVCAR-4 ovarian = system: OVCAR-4 ovarian
SW-620 colon = system: SW-620 colon
EKVX NSCLC = system: EKVX NSCLC
U251 CNS = system: U251 CNS
COLO 205 colon = system: COLO 205 colon
SF-539 CNS = system: SF-539 CNS
CCRF-CEM leukemia = system: CCRF-CEM leukemia
HCC-2998 colon = system: HCC-2998 colon
T-47D breast = system: T-47D breast
LOX IMVI melanoma = system: LOX IMVI melanoma
SK-MEL-28 melanoma = system: SK-MEL-28 melanoma
K-562 leukemia = system: K-562 leukemia
SN12C renal = system: SN12C renal

CC(C)(CN1CCCCC1)C(=O)CC(SCCS(=O)(=O)O)c1ccc(Cl)c(Cl)c1 (stereo not drawn)
TGI (NCI-H226 lung): 39.1 µM
TGI (HOP-92 NSCLC): 6.18 µM
TGI (HL-60(TB) leukemia): 5.63 µM
TGI (MOLT-4 leukemia): 8.06 µM
TGI (HS 578T breast): 7 µM
TGI (MCF7 breast): 15.3 µM
TGI (NCI/ADR-RES ovarian): 22.9 µM
TGI (SK-MEL-2 melanoma): 57.3 µM
TGI (MDA-MB-435): 4.57 µM
TGI (UO-31 renal): 16.4 µM
TGI (UACC-257 melanoma): 20.8 µM
TGI (SK-MEL-5 melanoma): 21.1 µM
TGI (DU-145 prostate): 23.4 µM
TGI (NCI-H522 lung): 5.59 µM
TGI (SF-295 CNS): 15.8 µM
TGI (MALME-3M melanoma): 22.1 µM
TGI (KM12 colon): 23 µM
TGI (786-0 renal): 3.4 µM
TGI (RXF 393 renal): 11.2 µM
TGI (HT29 colon): 10.9 µM
TGI (OVCAR-3 ovarian): 6.97 µM
TGI (MDA-N): 8.4 µM
TGI (HOP-62 NSCLC): 18.7 µM
TGI (HCT-15 colon): 5.35 µM
TGI (IGROV1 ovarian): 13.5 µM
TGI (A549 NSCLC): 21 µM
TGI (NCI-H460 lung): 11.9 µM
TGI (HCT-116 colon): 10.6 µM
TGI (PC-3 prostate): 17 µM
TGI (SNB-19 CNS): 23.1 µM
TGI (M14 melanoma): 3.8 µM
TGI (SK-OV-3 ovarian): 45 µM
TGI (ACHN renal): 9.03 µM
TGI (OVCAR-5 ovarian): 14.6 µM
TGI (SF-268 CNS): 15.1 µM
TGI (A498 renal): 12.9 µM
TGI (UACC-62 melanoma): 10.1 µM
TGI (MDA-MB-231 breast): 4.82 µM
TGI (BT-549 breast): 13 µM
TGI (TK-10 renal): 18.9 µM
TGI (SR leukemia): 6.38 µM
TGI (OVCAR-8 ovarian): 8.45 µM
TGI (NCI-H23 lung): 15.8 µM
TGI (RPMI-8226 leukemia): 7.03 µM
TGI (CAKI-1 renal): 12.9 µM
TGI (OVCAR-4 ovarian): 9.38 µM
TGI (SW-620 colon): 4.61 µM
TGI (EKVX NSCLC): 18 µM
TGI (U251 CNS): 19.3 µM
TGI (COLO 205 colon): 7.25 µM
TGI (SF-539 CNS): 6.23 µM
TGI (CCRF-CEM leukemia): 4.69 µM
TGI (HCC-2998 colon): 26.2 µM

Cn1c(=O)c2[nH]cnc2n(C)c1=O
TGI (NCI-H226 lung): > 100 µM
TGI (HOP-92 NSCLC): > 100 µM
TGI (HL-60(TB) leukemia): > 100 µM
TGI (MOLT-4 leukemia): > 100 µM
TGI (HS 578T breast): > 100 µM
TGI (MCF7 breast): > 100 µM
TGI (NCI/ADR-RES ovarian): > 100 µM
TGI (SK-MEL-2 melanoma): > 100 µM
TGI (UO-31 renal): > 100 µM
TGI (T-47D breast): > 100 µM
TGI (UACC-257 melanoma): > 100 µM
TGI (LOX IMVI melanoma): > 100 µM
TGI (SK-MEL-5 melanoma): > 100 µM
TGI (DU-145 prostate): > 100 µM
TGI (NCI-H522 lung): > 100 µM
TGI (MALME-3M melanoma): > 100 µM
TGI (KM12 colon): > 100 µM
TGI (786-0 renal): > 100 µM
TGI (OVCAR-3 ovarian): > 100 µM
TGI (MDA-N): > 100 µM
TGI (HOP-62 NSCLC): > 100 µM
TGI (HCT-15 colon): > 100 µM
TGI (IGROV1 ovarian): > 100 µM
TGI (SK-MEL-28 melanoma): > 100 µM
TGI (K-562 leukemia): > 100 µM
TGI (A549 NSCLC): > 100 µM
TGI (NCI-H460 lung): > 100 µM
TGI (HCT-116 colon): > 100 µM
TGI (PC-3 prostate): > 100 µM
TGI (M14 melanoma): > 100 µM
TGI (ACHN renal): > 100 µM
TGI (OVCAR-5 ovarian): > 100 µM
TGI (SN12C renal): > 100 µM
TGI (MDA-MB-231 breast): > 100 µM
TGI (TK-10 renal): > 100 µM
TGI (SR leukemia): > 100 µM
TGI (OVCAR-8 ovarian): > 100 µM
TGI (NCI-H23 lung): > 100 µM
TGI (RPMI-8226 leukemia): > 100 µM
TGI (CAKI-1 renal): > 100 µM
TGI (SW-620 colon): > 100 µM
TGI (EKVX NSCLC): > 100 µM
TGI (COLO 205 colon): > 100 µM
TGI (CCRF-CEM leukemia): > 100 µM
TGI (HCC-2998 colon): > 100 µM
